Measurements taken from paper PMC12775434, “Ultra-large virtual screening unveils potent agonists of the neuromodulatory orphan receptor GPR139” (Nature Communications, 2025).
Values joined by “and” are separate entries in the source; they are usually repeats but may differ in a detail not shown here. Identical values can stand only once. Like-named read-outs stand apart in the source and are kept apart here.

Legend:
Format in all cases: cell-based
GPR139 [1] = biological target: T1, GPR139 (Homo sapiens, UniProt Q6DWJ6); assay: Ca2+ mobilization assay, agonist mode, stable GPR139-CHOk1 cell line; settings: for Emax: normalized to Lundbeck Cmp 1a, read-out: Emax (%) Ca2+
T1 sequence (Q6DWJ6 1-353): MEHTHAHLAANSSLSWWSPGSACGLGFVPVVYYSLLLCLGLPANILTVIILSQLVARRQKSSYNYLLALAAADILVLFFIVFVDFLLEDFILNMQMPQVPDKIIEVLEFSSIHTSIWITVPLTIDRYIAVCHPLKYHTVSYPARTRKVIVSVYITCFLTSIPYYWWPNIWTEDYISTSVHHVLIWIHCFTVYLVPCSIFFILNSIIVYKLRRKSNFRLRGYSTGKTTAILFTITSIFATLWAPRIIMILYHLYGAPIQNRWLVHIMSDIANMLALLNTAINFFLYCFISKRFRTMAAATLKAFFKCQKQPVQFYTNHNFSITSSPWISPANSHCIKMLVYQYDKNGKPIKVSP
Method in brief: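 Agonist activity of compounds is assessed in stably transfected CHO-K1 cells using the calcium dye Fluo-4 at 37 °C in HEPES-buffered HBSS (pH 7.4). Efficacy is expressed relative to the reference agonist Lundbeck Cmp 1a, set as 100%.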

GPR139 [2] = biological target: T1, GPR139; assay: Ca2+ mobilization assay, antagonist mode (EC80 800 nM Lundbeck Cmp 1a after 20 min preincubation), GPR139-CHOk1
Method in brief: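 Antagonist mode: 800 nM (EC80) reference agonist Lundbeck Cmp 1a added following 20 min pre-incubation with 10 µM compound. GPR139-CHOk1 cells, Fluo-4 dye, probenecid-containing HEPES buffer pH 7.4; intracellular Ca2+ measured at 37 °C (ex 485, em 525 nm).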

[3] = biological target: T2, human muscarinic acetylcholine M1 receptor (M1R) (Homo sapiens, UniProt P11229); assay: Ca2+ mobilization counter-screen in M1R-CHOk1 cells;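 further: 10 µM test compound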
T2 sequence (P11229 1-460): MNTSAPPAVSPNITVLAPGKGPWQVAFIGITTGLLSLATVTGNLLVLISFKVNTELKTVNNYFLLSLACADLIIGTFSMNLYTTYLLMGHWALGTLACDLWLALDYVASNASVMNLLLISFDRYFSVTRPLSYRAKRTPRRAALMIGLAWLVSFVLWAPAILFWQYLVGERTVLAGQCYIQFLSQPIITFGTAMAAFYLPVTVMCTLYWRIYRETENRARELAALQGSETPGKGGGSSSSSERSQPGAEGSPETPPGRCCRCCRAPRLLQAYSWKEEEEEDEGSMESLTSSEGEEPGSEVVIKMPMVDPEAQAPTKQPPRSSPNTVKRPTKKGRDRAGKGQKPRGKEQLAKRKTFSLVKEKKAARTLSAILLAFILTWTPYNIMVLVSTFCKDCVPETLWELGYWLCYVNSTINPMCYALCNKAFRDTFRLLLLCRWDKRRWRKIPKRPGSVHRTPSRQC
Method in brief: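 Counter-screen used CHO-K1 cells stably carrying human M1R, Fluo-4 AM-loaded (2 µM, 1 h, 37 °C). Calcium signal measured at 485/525 nm after compound addition.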

[4] = Agonist mode, individual replicates (Supplementary Figure 4)
[5] = Supplementary Table 2, mean ± SEM
[6] = log [Compound] M = -4.5, individual replicate columns
[7] = log [Compound] M = -5.0, individual replicate columns
[8] = log [Compound] M = -5.5, individual replicate columns
[9] = log [Compound] M = -6.0, individual replicate columns
[10] = log [Compound] M = -6.5, individual replicate columns
[11] = log [Compound] M = -7.0, individual replicate columns
[12] = log [Compound] M = -7.5, individual replicate columns
[13] = log [Compound] M = -8.0, individual replicate columns
[14] = log [Compound] M = -8.5, individual replicate columns
[15] = log [Compound] M = -9.0, individual replicate columns
[16] = individual replicates (Supplementary Figure 4)
[17] = individual replicates (Supplementary Figure 5)

Row | SMILES | Ca2+ signal (% of Cmp 1a) (GPR139 [1]; [4]) | Emax (GPR139 [1]; [5]) | Ca2+ signal (% of Cmp 1a) (GPR139 [1]; [6]) | Ca2+ signal (% of Cmp 1a) (GPR139 [1]; [7]) | Ca2+ signal (% of Cmp 1a) (GPR139 [1]; [8]) | Ca2+ signal (% of Cmp 1a) (GPR139 [1]; [9]) | Ca2+ signal (% of Cmp 1a) (GPR139 [1]; [10]) | Ca2+ signal (% of Cmp 1a) (GPR139 [1]; [11]) | Ca2+ signal (% of Cmp 1a) (GPR139 [1]; [12]) | Ca2+ signal (% of Cmp 1a) (GPR139 [1]; [13]) | Ca2+ signal (% of Cmp 1a) (GPR139 [1]; [14]) | Ca2+ signal (% of Cmp 1a) (GPR139 [1]; [15]) | Ca2+ signal (% of Cmp 1a) (GPR139 [2]; [16]) | Ca2+ signal (% of Carbachol) [3, 17] | also measured
1 | Cc1nc(-c2nc(CC(=O)NC(C)c3ccccc3)no2)cs1 (stereo not drawn) [Compound 1.15, CC(C1=CC=CC=C1)NC(CC2=NOC(C3=CSC(C)=N3)=N2)=O] | 96 % of Cmp 1a and 108 % of Cmp 1a and 104 % of Cmp 1a | 105 ± 4% | 94 % of Cmp 1a and 99 % of Cmp 1a and 118 % of Cmp 1a and 102 % of Cmp 1a | 101 % of Cmp 1a and 90 % of Cmp 1a and 112 % of Cmp 1a and 100 % of Cmp 1a | 104 % of Cmp 1a and 84 % of Cmp 1a and 109 % of Cmp 1a and 112 % of Cmp 1a | 70 % of Cmp 1a and 62 % of Cmp 1a and 81 % of Cmp 1a and 93 % of Cmp 1a | 46 % of Cmp 1a (2×) and 31 % of Cmp 1a and 57 % of Cmp 1a | 12 % of Cmp 1a and 11 % of Cmp 1a and 21 % of Cmp 1a and 17 % of Cmp 1a | 8 % of Cmp 1a and -0.333 % of Cmp 1a and 13 % of Cmp 1a and 5.67 % of Cmp 1a | 1.67 % of Cmp 1a and -3.67 % of Cmp 1a and 8 % of Cmp 1a and -2 % of Cmp 1a | 1 % of Cmp 1a and 15 % of Cmp 1a and 11 % of Cmp 1a and 10 % of Cmp 1a | 0.667 % of Cmp 1a and 7 % of Cmp 1a (2×) and 12 % of Cmp 1a | 7 % of Cmp 1a and 2.33 % of Cmp 1a | 3 % of Carbachol and 14 % of Carbachol | fold decrease in potency relative to parent compound 1 (GPR139 [1]; Ca2+ mobilization EC50): 3- to 25 fold; EC50 (GPR139 [1]; Supplementary Table 2, mean ± SEM, read-out: pEC50 Ca2+ (converted)): 501 nM
2 | CC(NC(=O)Cn1cc(-c2cccs2)nn1)c1ccccc1 (stereo not drawn) [Compound 1.38, CC(NC(=O)CN1C=C(N=N1)C2=CC=CS2)C=3C=CC=CC3] | 54 % of Cmp 1a and 77 % of Cmp 1a and 68 % of Cmp 1a | 82 ± 7% | 92 % of Cmp 1a (2×) and 78 % of Cmp 1a and 67 % of Cmp 1a | 90 % of Cmp 1a and 69 % of Cmp 1a and 85 % of Cmp 1a and 60 % of Cmp 1a | 88 % of Cmp 1a and 51 % of Cmp 1a and 91 % of Cmp 1a and 56 % of Cmp 1a | 56 % of Cmp 1a and 17 % of Cmp 1a and 49 % of Cmp 1a and 18 % of Cmp 1a | 22 % of Cmp 1a and -6 % of Cmp 1a and 11 % of Cmp 1a and 3.64 % of Cmp 1a | 7.61 % of Cmp 1a and -2.54 % of Cmp 1a and 1.82 % of Cmp 1a and 1.21 % of Cmp 1a | 0.854 % of Cmp 1a and 4 % of Cmp 1a and -4.35 % of Cmp 1a and 9 % of Cmp 1a | -1.25 % of Cmp 1a and 0.0327 % of Cmp 1a and -3 % of Cmp 1a and 1.5 % of Cmp 1a | 1 % of Cmp 1a and 0.912 % of Cmp 1a and 6 % of Cmp 1a and 0.231 % of Cmp 1a | 5.27 % of Cmp 1a and -0.036 % of Cmp 1a and 7.38 % of Cmp 1a and 4.27 % of Cmp 1a | 22 % of Cmp 1a and 19 % of Cmp 1a | 0.152 % of Carbachol and 1.48 % of Carbachol and 2 % of Carbachol | fold decrease in potency on substitution of the central oxadiazole ring (GPR139 [1]; Ca2+ mobilization): 7 fold; EC50 (GPR139 [1]; GPR139-CHOk1, read-out: EC50, Ca2+ mobilization): 1300 nM
3 | O=C(NC1CC12CCCC2)C1CCCN(c2ccccc2)C1=O (stereo not drawn) [Compound 13, O=C(NC1CC21CCCC2)C3CCCN(C3=O)C=4C=CC=CC4] | – | – | – | – | – | – | – | – | – | – | – | – | – | – | Ca2+ signal (% of Cmp 1a) (GPR139 [1]; 0.1 µM, individual replicates (Supplementary Figure 3)): -0.35 % of Cmp 1a and -3.4 % of Cmp 1a; Ca2+ signal (% of Cmp 1a) (GPR139 [1]; 1 µM, individual replicates (Supplementary Figure 3)): 5.0 % of Cmp 1a and -6.6 % of Cmp 1a; Ca2+ signal (% of Cmp 1a) (GPR139 [1]; 10 µM, individual replicates (Supplementary Figure 3)): 18.4 % of Cmp 1a and -6.0 % of Cmp 1a; Ca2+ signal (% of Cmp 1a) (GPR139 [1]; Agonist mode, individual replicates (Supplementary Figure 1)): 47 % of Cmp 1a and 33 % of Cmp 1a and 40 % of Cmp 1a; Ca2+ signal (% of Cmp 1a) (GPR139 [1]; primary screen, 10 µM compound, agonist mode, three columns = independent experiments): 47 % of Cmp 1a and 33 % of Cmp 1a and 40 % of Cmp 1a; Ca2+ signal (% of Cmp 1a) (GPR139 [2]; individual replicates (Supplementary Figure 1)): 67.15 % of Cmp 1a and 66.5231 % of Cmp 1a and 65.9874 % of Cmp 1a; Ca2+ signal (% of Carbachol) ([3]; individual replicates (Supplementary Figure 2)): -12 % of Carbachol and -1.24 % of Carbachol
